Laboratory results: patent US20140088144A1, “INHIBITING MICROBIAL INFECTIONS” (THE UNIVERSITY OF KANSAS, priority 2012, published 2014)

Assays:
[1] = biological target: VirF (Shigella flexneri, UniProt P0A2T1); test: In vivo dose-response, VirF-activated virB-lacZ fusion in E. coli; format: cell-based; set-up: expressed in transfected cells; host or cells: E. coli SME4382 (virB-lacZ, pHG165virF)
Text: For dose-response studies, a virB-lacZ reporter strain was constructed that allowed IPTG (isopropyl-β-D-thiogalactopyranoside) induced expression of VirF from plasmid pHG165. To construct this virB-lacZ reporter strain, kMAD102 was isolated from strain AB97, used to infect strain ECL116, and single copy lysogens were identified. Plvir-mediated generalized transductions were then used to add malP::lacI^q and recA::cat to this strain, as described previously. The virF gene was amplified (Forward oligo, Reverse oligo), digested with EcoRI and PstI and then ligated into the same sites of plasmid pHG165. The resulting plasmid, pHG165virF was transformed into SME4259 to make SME4382 (FIG. 20, Top). A control strain, SME3359, which carries a single copy hts-lacZ reporter fusion in the chromosome and a plasmid pHG165lacI that expresses LacI protein (FIG. 20, Bottom), was constructed. Briefly, the hts-lacZ reporter fusion consists of a synthetic promoter that is repressed by Lad.
In vivo dose-response assays were performed using a procedure described previously. […] Bacterial cultures were mixed with varying concentrations of SE-1 (2.2% DMSO, final), induced with 6.5 mM IPTG for 3 h at 37° C., lysed and β-galactosidase activity was measured. […] IC50 values were calculated and graphs were drawn using Prism (GraphPad, La Jolla, Calif.).

[2] = system: rrsA; test: Shigella gene expression qRT-PCR, internal control rrsA; format: cell-based, S. flexneri; settings: for Average ΔΔCt / Ct / RQ (2^−ΔΔCt) / ΔΔCt^1 (normalized to gapA): rrsA, example data
Procedure: Real-time quantitative reverse transcription PCR (qRT-PCR) was performed to test the effects of SE-1 on the expression of the VirF regulated genes virB, icsA, icsB and ipaB. The gapA and rrsA transcripts were used as internal controls. These are constitutively expressed Shigella genes commonly used to normalize mRNA levels. S. flexneri strain SME4331, which carries a null mutation in ipgD (ipgD), was grown at 30° C. overnight in TSB with ampicillin, diluted into the same medium to an OD600 of ˜0.1, and 1 ml aliquots further grown at 30° C. (DMSO only) or at 37° C. (SE-1 at 20 or 40 μM, or DMSO only, all 0.3% DMSO). Cells were grown to an OD600 of 1.0 (˜2.5 h) and RNA was isolated using an RNeasy MiniElute Cleanup Kit (Qiagen, Germantown, Md.), with DNA contamination eliminated using a Turbo DNase Kit (Ambion, Austin, Tex.). Complementary DNA (cDNA) was synthesized by random priming using a cDNA Reverse Transcription Kit (Applied Biosystems, Foster City, Calif.). Primers were tested for PCR specificity using genomic DNA template to ensure a single amplicon of the expected size for each primer pair, and validated using 5-fold dilutions of cDNA (2000 to 0.0256 ng) to ensure a linear plot of cycle threshold (Ct) versus cDNA concentration. Validated primer sets were used to test mRNA profiles in reactions that contained 10 ng of cDNA, 10 μl of SYBR green master mix (Applied Biosystems), specific primers (0.5 μM each) and water to a final volume of 20 μl, using a Step One Plus Real-Time PCR System (Applied Biosystems). The data was analyzed using the 2^−ΔΔCt method, and also by Applied Biosystems real-time analysis software. […] In brief, ΔΔCt values [ΔΔCt=(Ct,Target−Ct,Internal Control)SE-1−(Ct,Target−Ct,Internal Control)no SE-1] were separately obtained for each sample relative to two internal controls, gapA and rrsA. The ΔΔCt values relative to the two internal controls for each sample were averaged and then used to calculate the relative expression levels (2^−ΔΔCt). As a control, we also normalized each internal control to the other internal control. Control reactions used templates generated without reverse transcriptase to ensure low genomic DNA contamination. To ensure that products were not likely to be due to primer dimer artifacts, additional control samples were performed in which reaction mixtures contained primers alone (no template).

VirF, sequence (P0A2T1 whole entry, the tested form may be a part): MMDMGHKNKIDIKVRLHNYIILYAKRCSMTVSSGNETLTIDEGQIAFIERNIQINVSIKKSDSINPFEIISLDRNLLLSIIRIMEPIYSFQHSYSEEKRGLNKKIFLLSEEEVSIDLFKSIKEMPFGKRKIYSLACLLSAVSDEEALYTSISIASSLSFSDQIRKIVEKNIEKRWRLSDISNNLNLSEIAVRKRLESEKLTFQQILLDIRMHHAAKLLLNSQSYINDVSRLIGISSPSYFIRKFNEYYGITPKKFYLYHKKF

CCCCN1C=C(c2ccc3ccccc3n2)C(C[N+](=O)[O-])c2ccccc21 (centres unmarked) [Compound 1, 1-butyl-4-(nitromethyl)-3-quinolin-2-yl-4H-quinoline]
IC50 ([1]; IC50, virB-lacZ reporter fusion expression, E. coli strain with plasmid-expressed VirF): ~8 µM
inhibition of in vivo activation by VirF ([1]; compared with full-length RhaS): similar, if not greater, extent than full-length RhaS
expression of control gene rrsA ([2]; 40 μM SE-1, normalized to gapA): no decrease
Average ΔΔCt ([2]; SE-1 20 μM): −1.0
Ct ([2]; SE-1 20 μM): 18.55
RQ (2^−ΔΔCt) ([2]; SE-1 20 μM): 2
ΔΔCt^1 (normalized to gapA) ([2]; SE-1 20 μM): −1.0
Average ΔΔCt ([2]; SE-1 40 μM): 0.69
Ct ([2]; SE-1 40 μM): 18.29
RQ (2^−ΔΔCt) ([2]; SE-1 40 μM): 1.62
ΔΔCt^1 (normalized to gapA) ([2]; SE-1 40 μM): 0.69
